# Measured values: publication PMC8241142 (Drug Delivery, 2017)
# What was measured:
# [1] = In vitro release of DZP samples (USP II paddle method); assay type: physicochemical; conditions: deionized water, 37 °C, 50 rpm
# Description: (§1) Dissolution studies of samples were carried out according to a USP II paddle method at 37 °C with a stirrer rotation speed of 50 rpm in a dissolution apparatus (ZRD6-B, Shanghai Huanghai Medicament Test Instrument Factory, Shanghai, China). […] At predetermined time intervals, 5 ml samples were taken out and replaced by fresh medium immediately. Then, samples were passed through a 0.22 μm membrane filter and were transferred to UV/Vis analysis at the wavelength of 240 nm.
# [2] = In vitro release of NMS samples (USP II paddle method, PBS pH 7.8); assay type: physicochemical; conditions: PBS pH 7.8, 37 °C
# Description: as §1
# Samples containing 5 mg NMS were put into 250 ml phosphate buffer solutions (PBS, pH 7.8) at 37 °C.
# [3] = system: mouse ear swelling caused by xylene; experiment: Mouse ear swelling test (MEST); assay type: in vivo, Kunming mice; conditions: intragastric, 0.6 mg NMS, 50 min
# Description: The mouse ear swelling test was developed to further evaluate the swelling inhibition potential of NMS/CMS. In detail, 16 male Kunming mice weighing 18–22 g were randomly divided into four groups (n = 4): NS group (negative control group), NMS group (positive control group), NMS/CMS group ([…]) and NMS/MCM41 group ([…]). Samples containing 0.6 mg NMS were suspended in normal saline and imposed to mice in all groups by intragastric administration. Mice in NS group were exposed to normal saline only. At 30 min after administration, 0.1 ml xylene was applied on each side of the left ear of mice, and the right ear regarded as a reference was left untreated. After 50 min, mice were executed, both ears were removed, and tissues with diameter of 0.6 cm were cut off by hole punch. The weight of the tissues cut from left and right ears was measured by electronic scale. The repression rate and the degree of ear swelling were, respectively, expressed as: (3) Repression rate (%)=(wL-wR)negative control-(wL-wR)test/(wL-wR)negative control-(wL-wR)positive control×100 (4) Swelling rate (%)=wL-wR/wR×100 where w L is the weight of tissue cut from the left ear and w R is the weight of tissue cut from the right ear of the same mice.
SMILES,cumulative release percentage within 24 h [1] [%],accumulative release percentage within 24 h [2] [%],ear swelling rate [3] [%]
"CN1C(=O)CN=C(c2ccccc2)c2cc(Cl)ccc21 [DZP, Diazepam]",66.75,–,–
"CS(=O)(=O)Nc1ccc([N+](=O)[O-])cc1Oc1ccccc1 [NMS, Nimesulide]",–,93.1,32.4
